Laboratory results taken from paper PMC4114018 (Science signaling, 2013).

How the values were obtained:
mouse GPR17 (mGPR17) = mouse GPR17 (mGPR17) (Mus musculus, UniProt Q6NS65); experiment: label-free DMR and second messenger assays, HEK293 cells; type: cell-based; conditions: agonist
rat GPR17 (rGPR17) = rat GPR17 (rGPR17) (Rattus norvegicus, UniProt Q09QM4); experiment: as above; type: cell-based; conditions: agonist
rat GPR17 (rGPR17), sequence (Q09QM4 whole entry): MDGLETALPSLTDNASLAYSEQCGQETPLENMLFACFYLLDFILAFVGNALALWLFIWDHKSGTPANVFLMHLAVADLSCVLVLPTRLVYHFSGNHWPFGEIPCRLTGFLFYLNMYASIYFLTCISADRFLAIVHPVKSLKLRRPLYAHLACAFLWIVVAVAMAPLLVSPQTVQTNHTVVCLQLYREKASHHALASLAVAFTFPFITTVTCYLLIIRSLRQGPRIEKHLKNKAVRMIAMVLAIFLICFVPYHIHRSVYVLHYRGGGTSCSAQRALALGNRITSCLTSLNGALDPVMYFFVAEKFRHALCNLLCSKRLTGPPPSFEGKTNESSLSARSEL

mouse GPR17 (mGPR17), sequence (Q6NS65 whole entry): as the sequence (Q09QM4 whole entry) above, with D2N, T6A, A15S, S270A counted along it

O=C(O)CCc1c(C(=O)O)[nH]c2cc(Cl)cc(Cl)c12 [compound 2, 2-carboxy-4,6-dichloro-1H-indole-3-propionic acid]
EC50 (mouse GPR17 (mGPR17)): concentration-dependent activation of rGPR17 and mGPR17 was observed | EC50 (rat GPR17 (rGPR17)): concentration-dependent activation of rGPR17 and mGPR17 was observed
